Data published in patent publication US20260240807A1, “UROLITHINS FOR IMPROVING CARDIAC FUNCTION AND HEALTH” (Amazentis SA, priority 2022, published 2026).

Tests used:
[1] = tested on: Wistar male rats with myocardial infarction (permanent LAD occlusion); assay: Echocardiography and heart mass after myocardial infarction (LAD ligation); format: in vivo, rat; conditions: MI rats, 25 mg/kg daily by gavage for 2 months starting one week after MI, vs MI vehicle
Protocol: The goal of the study is to assess urolithin A treatment effect on heart function after myocardial infarction. […] Myocardial infarction (MI) was induced in 6-week old Wistar male rats from groups 1, 2, and 3 (Table 3), by permanent occlusion of Left Anterior Descending coronary artery (ligation was performed at Do).
Rats were anesthetized with an intraperitoneal (IP) injection of Medetomidine (0.5 mg/kg) and ketamine (50 mg/kg), intubated and ventilated at 10 mL/kg tidal volume and 70-80 cycles/min. Body temperature were maintained between 36.5° C. and 37.5° C. via a thermoregulated heating pad connected to a rectal probe. Rats were placed in supine position, chest-shaved and prepared for standard surgical conditions. A left lateral thoracotomy was carefully performed so as to expose the heart. Then, a suture was placed around the LAD (4/0 Silk, Ethicon), around 2 mm below the left atrium and close to the interventricular junction, in order to obtain infarct size (IS) near 40% of the total left ventricular (LV) area. Chest was closed, air was expelled from the rib cage to avoid pneumothorax and quick reanimation was performed using atipamezole hydrochloride (IM, 0.5 mg/ml, Zoetis).
Animals from group 1 were subjected to the same protocol as MI groups. However, after the left lateral thoracotomy exposing the heart, the rib cage were closed without passing the suture thread around LAD.
Urolithin A or vehicle were administered by gavage at 25 mg/kg starting one week after myocardial infraction. Heart and plasma samples were collected at each time point. Ejection Fraction (EF), Fractional Shortening (FS), Isovolumic relaxation time (IVRT) were measured by echocardiography at 1 month and 2 month time points to evaluate heart function. […]
Rats were anesthetized with 4% isoflurane in 50% oxygen-50% air mixture and maintained with 2% isoflurane during the procedure. […] Body temperature was monitored and maintained between 36.5-37.5° C. via a rectal probe connected to the thermoregulated heating pad.
Standard B-mode (Brightness-mode) and M-mode (Motion-mode) images of the heart were obtained in the two-dimensional (2D) parasternal long axis view (PSLA). LV parameters will be measured and calculated as the mean of 3 consecutive cardiac cycles by a single blinded trained operator. • Left Ventricular function LV function is calculated using the LV dimensions parameters previously described. • FS=fractional shortening=[(LVIDd−LVIDs)/LVIDd]*100. It is a calculation based on the difference of dimensions between systole and diastole measured in M-mode. […] It is a calculation based on the difference of volumes between systole and diastole measured in B-mode and M-mode. […]

[2] = tested on: gene sets (Cellular Components) linked to mitochondrial function in heart tissue; assay: RNA-seq gene set enrichment analysis of heart sections, MI rats; format: in vivo, rat; conditions: MI+UA vs MI rats, 25 mg/kg PO
Protocol: Heart sections from rats in the groups described in FIG. 1 (Example 1) have been prepared using a microtome, deparaffinized and RNA extracted using the following kit (RNAeasy FFPE 76504, Qiagen). Upon extraction, RNA was quality controlled with Agilent Fragment Analyzer System.
Library preparation was performed using Strand-specific cDNA library and following the steps here indicated: • rRNA depletion. • mRNA fragmentation. • Random primed cDNA synthesis (strand-specific) • Adapter ligation and adapter specific PCR amplification RNA-seq run was executed with the NovaSeq6000 using S4 flowcells with 2×150 bp.
QC and preprocessing of raw sequencing reads was performed using an in-house QC pipeline. […] High quality RNA-seq read pairs were mapped to the Ensembl rat reference genome
Reads with a minimum PHRED score of 15, a minimum length of 15 bp, and a minimum unqualified percent limit of 40 (40%) were retained for downstream analysis. […]
Gene Set Enrichment Analysis (GSEA) (Subramanian, et al. Proc Natl Acad Sci USA 2005, 102 (43), 15545-50) was performed for characterizing complex relations of gene expression changes with gene ontologies (cellular components), under different biological conditions. […] Gene ranking information is transformed to pathway level to assign statistical significance for each analyzed gene set. […]

Old C57BL/6 mice [3] = assay: Echocardiography in old mice (age-related heart dysfunction); format: in vivo, mouse; conditions: old mice (26 months), chow diet with urolithin A 50 mg/kg for 2 months
Protocol: (§1) The goal of the study is to evaluate urolithin treatment effect age-related heart dysfunction. […] Old C57BL/6 mice (26 months) were used as model to reproduce natural decline in heart function with aging. Chow diet with and without urolithin A was administered for 2 months at 50 mg/kg. Post-mortem heart muscles, skeletal muscles, and plasma samples post-mortem were collected at the end of the study. Ejection Fraction (EF), Fractional Shortening (FS) were measured by echocardiography. Muscle contractility was also measured. Analysis of both heart and skeletal muscle function were conducted at the end of the study.

Old C57BL/6 mice [4] = assay: Skeletal muscle function (muscle contractility) in old mice; format: in vivo, mouse; conditions: old mice (26 months), chow diet with urolithin A 50 mg/kg for 2 months
Protocol: as §1

[5] = tested on: heart mitochondria of old C57BL/6 mice; assay: Transmission electron microscopy of heart mitochondria in old mice; format: in vivo, mouse; conditions: 50 mg/kg by gavage for 2 months, vs old vehicle
Protocol: (§2) The goal of the study was to evaluate urolithin treatment effect on age-related heart dysfunction. Old C57BL/6 mice (24 months at the end of the study) were used as model to reproduce natural decline in heart function with aging and administered by gavage for 2 months with either Urolithin A at 50 mg/kg (Old UA) or vehicle (Old Vehicle). Young mice (18 weeks-old at the end of the study) were administered with vehicle for 2 months. Post-mortem heart muscles, were collected at the end of the study.
Muscle samples from animals as described in example 2 were fixed in 2% glutaraldehyde solution 0.1 M Sorenson's buffer (pH 7.3). These samples were later postfixed in 1% osmium tetroxide for 8 min [pulse microwaved (MW), 100 watts (W)] and rinsed in distilled H2O (3×150 W 40 s per step). Samples were dehydrated in a graded series of acetone (25%; 50%; 75%; 3× 100%; 150 W 40 seconds per step) before being impregnated with increasing concentrations of epoxy resin (TAAB medium resin) in acetone (25%; 50%; 75%; 3×100%; 300 W 3 min per step). The samples were then embedded in 100% fresh resin and left to polymerize at 60° C. in a conventional oven for a minimum of 24 h.
All resin blocks were trimmed using a razor blade to form a trapezoid block face. Sections were cut in a longitudinal or transverse orientation on an ultramicrotome (Wolf et al., 2019) using a diamond knife. Semithin sections (0.5 μm) were stained with toluidine blue and viewed on a light microscope (LM) to verify orientation of tissue. Ultrathin sections (70 nm) were then cut and picked up onto copper grids. Sections from blocks were stained with 1% uranyl acetate (30 min) and 3% lead citrate (7 min). All sections were examined using a HT7800 120 kV TEM (Hitachi). Digital micrographs were captured using an EMSIS Xarosa CMOS Camera with Radius software.
These samples were later postfixed in 1% osmium tetroxide during 1 h, dehydrated within an increasing concentration of acetone. […]
Individual heart mitochondria from 3 Young vehicle, 3 Old vehicle and 3 Old UA O-AL mice were manually traced in transverse orientations using ImageJ software (NIH) (https://imagej.nih.gov/ij/) and to quantify the following morphological and shape descriptors: area (μm2), perimeter (μm), circularity 4π×(area/perimeter2), aspect ratio ((major axis)/(minor axis)): the aspect ratio being a measure of the length to width ratio, form factor ((perimeter)/(4π×surface)): a measure sensitive to the complexity and the branched appearance of the mitochondria, Feret's diameter (the longest distance (μm) between two points of the mitochondria studied) and minimum Feret diameter (corresponds to the smallest diameter of the mitochondria) (Picard et al., 2012). […]

[6] = tested on: gene sets (Cellular Components) repressed with aging in heart; assay: RNA-seq gene set enrichment analysis of heart, old mice; format: in vivo, mouse; conditions: old mice treated with UA 50 mg/kg for 2 months vs old vehicle
Protocol: as §2
RNA-seq analysis from samples derived from example 3 has been performed as described for example 1.
A Gene set enrichment analysis was performed looking at gene set (i.e., biological pathways) belonging to the category “Cellular Components”.

[7] = tested on: mitochondrial complex II enzyme SDH; assay: Succinate dehydrogenase activity staining of heart sections; format: in vivo, mouse; conditions: old mice, 50 mg/kg by gavage for 2 months, vs old vehicle control
Protocol: as §2
Hearts in OCT were cut into sections of […] using a cryostat. Sections were then incubated in a solution containing nitroblue tetrazolium (1.5 mM), sodium succinate (130 mM), phenazine methosulphate (0.2 mM), and sodium azide (0.1 mM) for 6 min at room temperature. The reaction was stopped by two washes in PBS. Slides were mounted using Fluoromont mounting medium (Thermofisher, 00-4958-02). All samples were processed successively using the same incubation solution ensuring that they underwent the exact same experimental conditions. Images of the tissues were taken with a bright field microscope. The intensity of the staining was analyzed with Image J.

O=c1oc2cc(O)ccc2c2ccc(O)cc12 [Urolithin A]
cardiac hypertrophy, calculated as heart weight over tibia length [1]: reduces
diastolic function, measured as isovolumetric relaxation time [1]: improves
systolic dysfunction measured as Ejection fraction [1]: significantly improves
systolic dysfunction measured as Fractional shortening [1]: significantly improves
gene sets repressed with MI (mitochondrial protein-containing complex, respirasome, nucleoids, peroxisomes), normalized enrichment score [2]: induced
increase in fractional shortening, after high-workload (Old C57BL/6 mice [3]; after high-workload): +39%
increase in fractional shortening, basally (Old C57BL/6 mice [3]; basal): +32%
skeletal muscle function (Old C57BL/6 mice [4]): significantly prevents age-related decline
cristae number ([5]; heart mitochondria): significantly increases
cristae volume density ([5]; heart mitochondria): significantly increases
mitophagy events, quantified as number of mitolysosomes ([5]; heart): significantly increases
mitochondrial area ([5]; heart, to levels compared to young animals): significantly increased
gene sets repressed with aging (respirasome, sarcolemma), normalized enrichment score [6]: induced
SDH enzymatic activity in the heart [7]: significantly increases
